Patent US8883801B2, “Substituted pyrazolo[1,5-a]pyrimidines as mTOR inhibitors” (Merck Sharp & Dohme Corp., priority 2010, dated 2014)
Like-named read-outs stand apart in the source and are kept apart here.

Key:
[1] = test system: mTORC2 activity: phosphorylated AKT Ser473 (pAKT S473) in PC3 cells; assay: mTOR target engagement assay, immunofluorescent cell-based, mTORC2 readout; conditions: Homo sapiens, PC-3, 1.5 h, 90 min treatment
How it was run: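 Read-out is immunofluorescence intensity, normalized to DMSO-only wells and fitted to a sigmoidal Hill equation for IC50. The mTORC1 arm probes phospho-4E-BP1 Thr37/46 and the mTORC2 arm phospho-AKT Ser473.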

human mTOR enzyme = human mTOR enzyme (Homo sapiens, UniProt P42345); assay: HTRF mTOR enzyme (kinase) assay; format: biochemical; conditions: 5 μM ATP, 0.2 μM GST-S6K, read-out: hMTOR IC50
human mTOR enzyme, sequence (P42345 1360-2549 limits assumed): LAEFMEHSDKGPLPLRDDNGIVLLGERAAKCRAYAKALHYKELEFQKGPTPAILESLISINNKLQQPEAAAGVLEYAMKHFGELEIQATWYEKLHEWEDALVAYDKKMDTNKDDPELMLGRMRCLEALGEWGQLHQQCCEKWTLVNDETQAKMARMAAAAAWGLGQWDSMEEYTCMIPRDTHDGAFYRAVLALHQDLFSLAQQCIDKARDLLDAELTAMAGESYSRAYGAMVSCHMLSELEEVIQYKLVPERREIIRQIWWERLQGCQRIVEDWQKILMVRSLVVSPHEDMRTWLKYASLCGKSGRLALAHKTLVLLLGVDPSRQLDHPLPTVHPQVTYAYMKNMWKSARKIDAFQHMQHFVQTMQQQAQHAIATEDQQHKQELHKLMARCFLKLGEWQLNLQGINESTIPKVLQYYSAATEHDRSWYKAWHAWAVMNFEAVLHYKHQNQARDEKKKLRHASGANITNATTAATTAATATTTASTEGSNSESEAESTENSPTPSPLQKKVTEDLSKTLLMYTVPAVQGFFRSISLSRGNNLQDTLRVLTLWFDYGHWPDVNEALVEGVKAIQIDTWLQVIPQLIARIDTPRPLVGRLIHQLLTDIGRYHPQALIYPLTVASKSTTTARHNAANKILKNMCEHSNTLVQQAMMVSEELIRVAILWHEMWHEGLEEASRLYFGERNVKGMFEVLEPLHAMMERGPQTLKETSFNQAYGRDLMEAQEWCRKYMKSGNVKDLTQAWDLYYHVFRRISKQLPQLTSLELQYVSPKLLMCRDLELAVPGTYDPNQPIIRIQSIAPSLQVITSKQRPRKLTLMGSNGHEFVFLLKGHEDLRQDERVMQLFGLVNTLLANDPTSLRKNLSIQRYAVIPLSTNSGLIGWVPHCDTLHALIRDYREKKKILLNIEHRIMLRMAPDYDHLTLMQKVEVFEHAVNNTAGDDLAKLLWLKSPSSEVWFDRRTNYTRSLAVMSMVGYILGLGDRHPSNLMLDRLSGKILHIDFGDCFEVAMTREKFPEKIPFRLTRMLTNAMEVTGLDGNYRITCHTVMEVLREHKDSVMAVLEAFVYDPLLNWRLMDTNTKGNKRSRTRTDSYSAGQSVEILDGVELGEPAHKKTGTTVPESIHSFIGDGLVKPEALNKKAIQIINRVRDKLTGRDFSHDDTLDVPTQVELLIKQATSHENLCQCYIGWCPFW

IC50 ([1]; rated class) [µM] | IC50 (human mTOR enzyme; rated class) [µM] | IC50 ([1]; numeric value) [µM] | IC50 (human mTOR enzyme; numeric value) [µM] | SMILES
0.1 to 1 | 0.001 to 0.1 | – | – | COCCOC1(CO)CCC(c2nc3c(-c4cnn(-c5ccccc5)c4)cnn3c(N)c2C(C)=O)CC1 (stereo not drawn) [Compound 87, 1-(7-amino-5-(4-(hydroxymethyl)-4-(2-methoxyethoxy)-cyclohexyl)-3-(1-phenyl-1H-pyrazol-4-yl)pyrazolo[1,5-a]pyrimidin-6-yl)ethanone]
0.1 to 1 | 0.001 to 0.1 | – | – | COCCO[C@]1(C(=O)NN)CC[C@@H](c2nc3c(-c4cnn(-c5ccccc5)c4)cnn3c(N)c2S(C)(=O)=O)CC1 [Compound 107, (1R,4R)-4-(7-amino-6-(methylsulfonyl)-3-(1-phenyl-1H-pyrazol-4-yl)pyrazolo[1,5-a]pyrimidin-5-yl)-1-(2-methoxyethoxy)-cyclohexane-carbohydrazide]
0.1 to 1 | 0.001 to 0.1 | – | – | CC(=O)c1c(C2CCC(CO)(C(=O)O)CC2)nc2c(-c3cnn(-c4ccccc4)c3)cnn2c1N (stereo not drawn) [Compound 132, 4-(6-acetyl-7-amino-3-(1-phenyl-1H-pyrazol-4-yl)pyrazolo[1,5-a]pyrimidin-5-yl)-1-(hydroxymethyl)cyclohexanecarboxylic acid]
– | – | 0.209 | 0.00737 | Nc1c(Br)c(C2CCC(O)(CO)CC2)nc2c(-c3ccc(-c4ccccc4)nc3)cnn12 (stereo not drawn) [Compound 134, 4-(7-amino-6-bromo-3-(6-phenylpyridin-3-yl)pyrazolo[1,5-a]pyrimidin-5-yl)-1-(hydroxymethyl)cyclohexanol]
0.1 to 1 | 0.001 to 0.1 | – | – | Nc1c(Br)c(C2CCC(O)(CO)CC2)nc2c(-c3cnn(-c4ccccc4)c3)cnn12 (stereo not drawn) [Compound 135, 4-(7-amino-6-bromo-3-(1-phenyl-1H-pyrazol-4-yl)pyrazolo[1,5-a]pyrimidin-5-yl)-1-(hydroxymethyl)-cyclohexanol]
0.1 to 1 | 0.001 to 0.1 | – | – | Nc1c(Br)c(C2CCC(O)(CO)CC2)nc2c(-c3cnc4ccc(F)cc4c3)cnn12 (stereo not drawn) [Compound 136, 4-(7-amino-6-bromo-3-(6-fluoroquinolin-3-yl)pyrazolo[1,5-a]pyrimidin-5-yl)-1-(hydroxymethyl)cyclohexanol]
0.1 to 1 | 0.001 to 0.1 | – | – | Nc1c(Br)c([C@H]2CC[C@](O)(CCO)CC2)nc2c(-c3ccc(-c4ccccc4)nc3)cnn12 [Compound 137, (1S,4S)-4-(7-amino-6-bromo-3-(6-phenylpyridin-3-yl)pyrazolo[1,5-a]pyrimidin-5-yl)-1-(2-hydroxyethyl)cyclohexanol]
0.1 to 1 | 0.001 to 0.1 | – | – | CC(=O)c1c(C2CCC(O)(CO)CC2)nc2c(-c3ccc(-c4ccccc4)nc3)cnn2c1N (stereo not drawn) [Compound 138, 1-(7-amino-5-(4-hydroxy-4-(hydroxymethyl)cyclohexyl)-3-(6-phenylpyridin-3-yl)pyrazolo[1,5-a]pyrimidin-6-yl)ethanone]
0.001 to 0.1 | 0.001 to 0.1 | – | – | CC(=O)c1c(C2CCC(O)(CO)CC2)nc2c(-c3cnn(-c4ccccc4)c3)cnn2c1N (stereo not drawn) [Compound 141, 1-(7-amino-5-(4-hydroxy-4-(hydroxymethyl)cyclohexyl)-3-(1-phenyl-1H-pyrazol-4-yl)pyrazolo[1,5-a]pyrimidin-6-yl)ethanone]
0.001 to 0.1 | 0.001 to 0.1 | – | – | CC(=O)c1c(C2CCC(O)(CO)CC2)nc2c(-c3cnc4ccc(F)cc4c3)cnn2c1N (stereo not drawn) [Compound 142, 1-(7-amino-3-(6-fluoroquinolin-3-yl)-5-(4-hydroxy-4-(hydroxymethyl)-cyclohexyl)-pyrazolo-[1,5-a]pyrimidin-6-yl)ethanone]
1 to 2 | 0.001 to 0.1 | – | – | CC(=O)c1c(C2CCC(O)(CO)CC2)nc2c(-c3ccc(-c4cccnc4)nc3)cnn2c1N (stereo not drawn) [Compound 143, 1-(3-(2,3′-bipyridin-5-yl)-7-amino-5-(4-hydroxy-4-(hydroxymethyl)-cyclohexyl)-pyrazolo-[1,5-a]pyrimidin-6-yl)ethanone]
1 to 2 | 0.001 to 0.1 | – | – | CC(=O)c1c(C2CCC(O)(CO)CC2)nc2c(-c3ccc(-c4cnn(C)c4)nc3)cnn2c1N (stereo not drawn) [Compound 145, 1-(7-amino-5-(4-hydroxy-4-(hydroxymethyl)-cyclohexyl)-3-(6-(1-methyl-1H-pyrazol-4-yl)pyridin-3-yl)pyrazolo[1,5-a]pyrimidin-6-yl)ethanone]
2 to 5 | 0.001 to 0.1 | – | – | CC(=O)c1c(N)n2ncc(-c3cnn(-c4cnn(C)c4)c3)c2nc1[C@H]1CC[C@@](O)(CO)CC1 [Compound 148, 1-(7-amino-5-((1R,4R)-4-hydroxy-4-(hydroxymethyl)cyclohexyl)-3-(1′-methyl-1′H-1,4′-bipyrazol-4-yl)pyrazolo[1,5-a]pyrimidin-6-yl)ethanone]
5 to 15 | 0.001 to 0.1 | – | – | COC(=O)c1cc(-c2ccc(-c3cnn4c(N)c(C(C)=O)c([C@H]5CC[C@@](O)(CO)CC5)nc34)cn2)ccc1OC [Compound 153, methyl 5-(5-(6-acetyl-7-amino-5-((1R,4R)-4-hydroxy-4-(hydroxymethyl)-cyclohexyl)-pyrazolo-[1,5-a]pyrimidin-3-yl)pyridin-2-yl)-2-methoxybenzoate]
5 to 15 | 0.001 to 0.1 | – | – | COc1ccc(-c2ccc(-c3cnn4c(N)c(C(C)=O)c(C5CCC(O)(CO)CC5)nc34)cn2)cc1C(=O)O (stereo not drawn) [Compound 155, 5-(5-(6-acetyl-7-amino-5-(4-hydroxy-4-(hydroxymethyl)-cyclohexyl)-pyrazolo-[1,5-a]pyrimidin-3-yl)pyridin-2-yl)-2-methoxybenzoic acid]
2 to 5 | 0.001 to 0.1 | – | – | CC(=O)c1c(C2CCC(O)(CO)CC2)nc2c(-c3ccc(-c4cncs4)nc3)cnn2c1N (stereo not drawn) [Compound 157, 1-(7-amino-5-(4-hydroxy-4-(hydroxymethyl)-cyclohexyl)-3-(6-(thiazol-5-yl)pyridin-3-yl)pyrazolo[1,5-a]pyrimidin-6-yl)ethanone]
0.001 to 0.1 | 0.001 to 0.1 | – | – | CC(=O)c1c(N)n2ncc(-c3ccc(-c4ccccc4)nc3)c2nc1[C@H]1CC[C@](O)(CCO)CC1 [Compound 159, 1-(7-amino-5-((1S,4S)-4-hydroxy-4-(2-hydroxyethyl)-cyclohexyl)-3-(6-phenylpyridin-3-yl)pyrazolo[1,5-a]pyrimidin-6-yl)ethanone]
1 to 2 | 0.001 to 0.1 | – | – | COC[C@]1(O)CC[C@@H](c2nc3c(-c4ccc(-c5ccccc5)nc4)cnn3c(N)c2Br)CC1 [Compound 164, (1S,4S)-4-(7-amino-6-bromo-3-(6-phenylpyridin-3-yl)pyrazolo[1,5-a]pyrimidin-5-yl)-1-(methoxymethyl)cyclohexanol]
1 to 2 | 0.001 to 0.1 | – | – | COCC1(O)CCC(c2nc3c(-c4cnc5ccc(F)cc5c4)cnn3c(N)c2Br)CC1 (stereo not drawn) [Compound 165, 4-(7-amino-6-bromo-3-(6-fluoroquinolin-3-yl)pyrazolo[1,5-a]pyrimidin-5-yl)-1-(methoxymethyl)cyclohexanol]
1 to 2 | 0.001 to 0.1 | – | – | COCCOC[C@]1(CO)CC[C@H](c2nc3c(-c4ccc(-c5ccccc5)nc4)cnn3c(N)c2Br)CC1 [Compound 168, ((1S,4S)-4-(7-amino-6-bromo-3-(6-phenylpyridin-3-yl)pyrazolo[1,5-a]pyrimidin-5-yl)-1-((2-methoxyethoxy)-methyl)cyclohexyl)-methanol]
2 to 5 | 0.001 to 0.1 | – | – | COCCOC[C@]1(CO)CC[C@@H](c2nc3c(-c4ccc(-c5ccccc5)nc4)cnn3c(N)c2Br)CC1 [Compound 169, ((1R,4R)-4-(7-amino-6-bromo-3-(6-phenylpyridin-3-yl)pyrazolo[1,5-a]pyrimidin-5-yl)-1-((2-methoxyethoxy)-methyl)cyclohexyl)-methanol]
1 to 2 | 0.001 to 0.1 | – | – | COCC1(CO)CCC(c2nc3c(-c4ccc(-c5ccccc5)nc4)cnn3c(N)c2C(C)=O)CC1 (stereo not drawn) [Compound 170, 1-(7-amino-5-(4-(hydroxymethyl)-4-(methoxymethyl)-cyclohexyl)-3-(6-phenylpyridin-3-yl)pyrazolo[1,5-a]pyrimidin-6-yl)ethanone]
2 to 5 | 0.001 to 0.1 | – | – | COc1ccc(-c2ccc(-c3cnn4c(N)c(C(C)=O)c(C5CCC(CO)(OC)CC5)nc34)cn2)cn1 (stereo not drawn) [Compound 171, 1-(7-amino-5-(4-(hydroxymethyl)-4-methoxycyclohexyl)-3-(6′-methoxy-2,3′-bipyridin-5-yl)pyrazolo[1,5-a]pyrimidin-6-yl)ethanone]
0.001 to 0.1 | 0.001 to 0.1 | – | – | CC(=O)c1c(C2CCC(CO)(CO)CC2)nc2c(-c3ccc(-c4ccccc4)nc3)cnn2c1N [Compound 172, 1-(7-amino-5-(4,4-bis(hydroxymethyl)-cyclohexyl)-3-(6-phenylpyridin-3-yl)pyrazolo[1,5-a]pyrimidin-6-yl)ethanone]
